Experimental data as given in ChEMBL document CHEMBL1152187, “Synthesis of C4-fluorinated solamins and their growth inhibitory activity against human cancer cell lines” (2008).

Tests used:
Type in all cases: functional
SF-295 = assay: Growth inhibition of human SF295 cells by sulforhodamine B assay
MKN-74 = assay: Growth inhibition of human MKN74 cells by sulforhodamine B assay
KM12 = assay: Growth inhibition of human KM12 cells by sulforhodamine B assay
OVCAR-4 = assay: Growth inhibition of human OVCAR4 cells by sulforhodamine B assay
MKN-7 = assay: Growth inhibition of human MKN7 cells by sulforhodamine B assay
[1] = Growth inhibition of human HBC5 cells by sulforhodamine B assay
A549 = assay: Growth inhibition of human A549 cells by sulforhodamine B assay
DMS-273 = assay: Growth inhibition of human DMS273 cells by sulforhodamine B assay
OVCAR-3 = assay: Growth inhibition of human OVCAR-3 cells by sulforhodamine B assay
[2] = Growth inhibition of human RXF631L cells by sulforhodamine B assay; settings: RXF 631
SF-539 = assay: Growth inhibition of human SF539 cells by sulforhodamine B assay
SNB-75 = assay: Growth inhibition of human SNB75 cells by sulforhodamine B assay
[3] = Growth inhibition of human BSY1 cells by sulforhodamine B assay; settings: BSY-1
MKN-28 = assay: Growth inhibition of human MKN28 cells by sulforhodamine B assay
MDA-MB-231 = assay: Growth inhibition of human MDA-MB-231 cells by sulforhodamine B assay
NCI-H226 = assay: Growth inhibition of human NCI-H226 cells by sulforhodamine B assay
HCT-15 = assay: Growth inhibition of human HCT15 cells by sulforhodamine B assay
[4] = Growth inhibition of human HBC4 cells by sulforhodamine B assay
HCC 2998 = assay: Growth inhibition of human HCC2998 cells by sulforhodamine B assay
SNB-78 = assay: Growth inhibition of human SNB-78 cells by sulforhodamine B assay
[5] = Growth inhibition of human MKN1 cells by sulforhodamine B assay; settings: MKN-1
NCI-H23 = assay: Growth inhibition of human NCI-H23 cells by sulforhodamine B assay
DU-145 = assay: Growth inhibition of human DU145 cells by sulforhodamine B assay
LOX IMVI = assay: Growth inhibition of human LOXIMVI cells by sulforhodamine B assay
SF-268 = assay: Growth inhibition of human SF268 cells by sulforhodamine B assay
MKN-45 = assay: Growth inhibition of human MKN45 cells by sulforhodamine B assay
NCI-H460 = assay: Growth inhibition of human NCI-H460 cells by sulforhodamine B assay
SK-OV-3 = assay: Growth inhibition of human SKOV3 cells by sulforhodamine B assay
U-251 = assay: Growth inhibition of human U251 cells by sulforhodamine B assay
OVCAR-8 = assay: Growth inhibition of human OVCAR8 cells by sulforhodamine B assay
DMS-114 = assay: Growth inhibition of human DMS114 cells by sulforhodamine B assay
MCF7 = assay: Growth inhibition of human MCF7 cells by sulforhodamine B assay
HCT-116 = assay: Growth inhibition of human HCT116 cells by sulforhodamine B assay
OVCAR-5 = assay: Growth inhibition of human OVCAR5 cells by sulforhodamine B assay
St-4 = assay: Growth inhibition of human St-4 cells by sulforhodamine B assay
PC-3 = assay: Growth inhibition of human PC3 cells by sulforhodamine B assay
ACHN = assay: Growth inhibition of human ACHN cells by sulforhodamine B assay
HT-29 = assay: Growth inhibition of human HT-29 cells by sulforhodamine B assay
NCI-H522 = assay: Growth inhibition of human NCI-H522 cells by sulforhodamine B assay

| Compound | GI50 (SF-295) | GI50 (MKN-74) | GI50 (KM12) | GI50 (OVCAR-4) | GI50 (MKN-7) | GI50 [1] | GI50 (A549) | GI50 (DMS-273) | GI50 (OVCAR-3) | GI50 [2] | GI50 (SF-539) | GI50 (SNB-75) | GI50 [3] | GI50 (MKN-28) | GI50 (MDA-MB-231) | GI50 (NCI-H226) | GI50 (HCT-15) | GI50 [4] | GI50 (HCC 2998) | GI50 (SNB-78) | also measured |
| --- | --- | --- | --- | --- | --- | --- | --- | --- | --- | --- | --- | --- | --- | --- | --- | --- | --- | --- | --- | --- | --- |
| CCCCCCCCCCCC[C@@H](O)[C@H]1CC[C@H]([C@H](O)CCCCCCCCCC[C@H](F)CC2=C[C@H](C)OC2=O)O1 | 31 µM | > 100 µM | > 100 µM | > 100 µM | 19 µM | > 100 µM | > 100 µM | > 100 µM | > 100 µM | > 100 µM | > 100 µM | 58 µM | 69 µM | > 100 µM | > 100 µM | 40 µM | > 100 µM | > 100 µM | > 100 µM | > 100 µM | GI50 [5]: > 100 µM; GI50 (NCI-H23): 5.1 µM; GI50 (DU-145): > 100 µM; GI50 (LOX IMVI): 97 µM; GI50 (SF-268): > 100 µM; GI50 (MKN-45): 43 µM; GI50 (NCI-H460): > 100 µM; GI50 (SK-OV-3): > 100 µM; GI50 (U-251): > 100 µM; GI50 (OVCAR-8): > 100 µM; GI50 (DMS-114): 0.46 µM; GI50 (MCF7): 37 µM; GI50 (HCT-116): 27 µM; GI50 (OVCAR-5): > 100 µM; GI50 (St-4): > 100 µM; GI50 (PC-3): 84 µM; GI50 (ACHN): > 100 µM; GI50 (HT-29): 92 µM; GI50 (NCI-H522): 16 µM |
| CCCCCCCCCCCC[C@@H](O)[C@H]1CC[C@H]([C@H](O)CCCCCCCCCC[C@@H](F)CC2=C[C@H](C)OC2=O)O1 | 37 µM | > 100 µM | > 100 µM | > 100 µM | 0.96 µM | > 100 µM | > 100 µM | > 100 µM | > 100 µM | > 100 µM | > 100 µM | 84 µM | > 100 µM | 41 µM | > 100 µM | 58 µM | > 100 µM | > 100 µM | > 100 µM | > 100 µM | GI50 [5]: > 100 µM; GI50 (NCI-H23): 23 µM; GI50 (DU-145): > 100 µM; GI50 (LOX IMVI): 6.5 µM; GI50 (SF-268): > 100 µM; GI50 (MKN-45): > 100 µM; GI50 (NCI-H460): > 100 µM; GI50 (SK-OV-3): > 100 µM; GI50 (U-251): > 100 µM; GI50 (OVCAR-8): 62 µM; GI50 (DMS-114): 0.26 µM; GI50 (MCF7): 56 µM; GI50 (HCT-116): 2 µM; GI50 (OVCAR-5): > 100 µM; GI50 (St-4): 74 µM; GI50 (PC-3): > 100 µM; GI50 (ACHN): > 100 µM; GI50 (HT-29): > 100 µM; GI50 (NCI-H522): 25 µM |
| CCCCCCCCCCCC[C@@H](O)[C@H]1CC[C@H]([C@H](O)CCCCCCCCCC[C@@H](O)CC2=C[C@H](C)OC2=O)O1 [MURISOLIN] | 7.3 µM | 4.6 µM | > 100 µM | 6.9 µM | 0.7 µM | 9.7 µM | 96 µM | 72 µM | 6.9 µM | 40 µM | 88 µM | 39 µM | 8.3 µM | 2.8 µM | > 100 µM | 29 µM | 51 µM | > 100 µM | > 100 µM | 78 µM | GI50 [5]: 20 µM; GI50 (NCI-H23): 0.22 µM; GI50 (DU-145): > 100 µM; GI50 (LOX IMVI): 1.9 µM; GI50 (SF-268): > 100 µM; GI50 (MKN-45): > 100 µM; GI50 (NCI-H460): > 100 µM; GI50 (SK-OV-3): > 100 µM; GI50 (U-251): 7.3 µM; GI50 (OVCAR-8): 38 µM; GI50 (DMS-114): < 0.01 µM; GI50 (MCF7): 3.9 µM; GI50 (HCT-116): 3.7 µM; GI50 (OVCAR-5): > 100 µM; GI50 (St-4): 41 µM; GI50 (PC-3): 17 µM; GI50 (ACHN): > 100 µM; GI50 (HT-29): > 100 µM; GI50 (NCI-H522): 3.6 µM |
| CCCCCCCCCCCC[C@@H](O)[C@H]1CC[C@H]([C@H](O)CCCCCCCCCCCCC2=C[C@H](C)OC2=O)O1 [REL-SOLAMIN] | 40 µM | > 100 µM | > 100 µM | > 100 µM | 13 µM | > 100 µM | > 100 µM | > 100 µM | > 100 µM | > 100 µM | > 100 µM | > 100 µM | > 100 µM | 14 µM | > 100 µM | > 100 µM | > 100 µM | > 100 µM | > 100 µM | > 100 µM | GI50 [5]: > 100 µM; GI50 (NCI-H23): 73 µM; GI50 (DU-145): > 100 µM; GI50 (LOX IMVI): 29 µM; GI50 (SF-268): > 100 µM; GI50 (MKN-45): > 100 µM; GI50 (NCI-H460): > 100 µM; GI50 (SK-OV-3): > 100 µM; GI50 (U-251): > 100 µM; GI50 (OVCAR-8): > 100 µM; GI50 (DMS-114): 4.3 µM; GI50 (MCF7): 71 µM; GI50 (HCT-116): > 100 µM; GI50 (OVCAR-5): > 100 µM; GI50 (St-4): > 100 µM; GI50 (PC-3): > 100 µM; GI50 (ACHN): > 100 µM; GI50 (HT-29): > 100 µM; GI50 (NCI-H522): 58 µM |
